Measured values: patent US20260125372A1, “DYNAMIN-1-LIKE PROTEIN INHIBITORS AND USES THEREOF” (Astellas Engineered Small Molecules US, Incorporated, priority 2022, published 2026)

Molecular target: T1, DRP1 (Homo sapiens, UniProt O00429)
T1 construct: Human DRIP1 (UniProtID: O00429.4, residues 1-699); made in house; host or cells: Escherichia coli BL21 CodonPlus DE3
Assay: AlphaLISA assay (His-DRP1 / MiD49-GST interaction)
Assay type: binding
Details: His-DRP1 200 nM, MiD49-GST 20 nM, GMP-PNP 100 uM
Protocol: Human DRIP1 (UniProtID: O00429.4, residues 1-699), and human MiD49 (UnitProtIS: Q96C03.1, residues 126-454) was cloned into a pET15b vector as an N-terminal His-tag Fusion. All constructs were transformed in Escherichia coli host strain BL21 CodonPlus DE3. Bacteria was grown in LB media with 100 μg/ml ampicillin and 34 μg/ml chloramphenicol in an orbital shaker at 37° C. until OD600 reached 0.4, at which temperature was reduced to 16° C. Recombinant protein expression was expressed for 18 hr by the addition of IPTG at OD600 of about 0.8. All cultures were spun down and bacterial pellets were used for protein purification.
For His-DRP1, the pellets were resuspended in DRP-buffer A (20 mM Tris, 500 KCl, 1.89 β-ME, pH 8.0) and protease inhibitor cocktail (Roche), followed by cell disruption by sonication (400 W, pulse 3 sec on, 3 sec off, total 20 min). The lysate was centrifuged at 20,000 g and then supernatant applied to a preequilibrated Ni-NTA column with DRP-buffer A. The column was extensively washed with buffer A containing 50 mM imidazole. Purified His-DRP1 was eluted with DRP-buffer A containing 250 mM imidazole and dialyzed overnight at 4° C. (18 kDa cutoff) against DRP-buffer A to remove imidazole. For AlphaLISA, the His tag was retained on DRP1 full-length.
For MiD49-GST, the bacterial pellets were resuspended and sonicated in MID lysis buffer (25 mM Tris-HCl, pH 7.5, 500 mM NaCl, 5% glycerol, 1 mM TCEP, and 0.5% CHAPS). The lysate was pre-cleared at 20,300 g before applying to a glutathione column. Unbound proteins were washed using MID-buffer A (25 mM Tris-HCl, pH 7.5, 300 mM NaCl, 5% glycerol, 1 mM TCEP) and MID-buffer B (25 mM Tris-HCl, pH 7.5, 300 mM NaCl, 5% glycerol, 1 mM TCEP, 1 mM GSH). The protein was eluted with MID-buffer C (25 mM Tris-HCl, pH 7.5, 300 mM NaCl, 5% glycerol, 1 mM TCEP, 10 mM GSH). The target protein was concentrated in the ultra-filtration tube with MW cutoff 30 kDa and further purified by size-exclusion chromatography on a Superdex-200 column (GE Healthcare) in buffer A. Fractions containing MiD49-GST (126-454) were pooled, concentrated, flash-frozen as single-use aliquots in liquid nitrogen and stored at −80° C.
A total of 100 nl of compounds were plated in a 384-well AlphaPlate (PerkinElmer, Waltham, MA) at concentrations 100 uM to […] in DMSO (dilution by 3.165 for 11 concentration levels). Recombinant His-DRP1 (200 nM), MiD49-GST (20 nM), and GMP-PNP (100 uM) were mixed in assay buffer (PBS with 1.5% BSA, 1 mM DTT). Five microliters of the protein mixture were added to the plate and incubate at room temperature for 30 min. Glutathione donor beads and nickel chelate acceptor beads were diluted and mixed in assay buffer to obtain 40 μg/ml of each bead. Five microliters of the mixed beads were added to each well on the microplate leading to a final bead concentration of 20 µg/ml per well. The sealed plate was incubated at room temperature for 60 min and protected from light. The AlphaLISA signal was detected with an EnVision Multilabel Reader (excitation at 680 and emission 615 nm). GraphPad Prism was used to calculate the IC50 by applying sigmoidal dose-response fit (variable slope).

T1 sequence (O00429 1-699 isoform O00429-4): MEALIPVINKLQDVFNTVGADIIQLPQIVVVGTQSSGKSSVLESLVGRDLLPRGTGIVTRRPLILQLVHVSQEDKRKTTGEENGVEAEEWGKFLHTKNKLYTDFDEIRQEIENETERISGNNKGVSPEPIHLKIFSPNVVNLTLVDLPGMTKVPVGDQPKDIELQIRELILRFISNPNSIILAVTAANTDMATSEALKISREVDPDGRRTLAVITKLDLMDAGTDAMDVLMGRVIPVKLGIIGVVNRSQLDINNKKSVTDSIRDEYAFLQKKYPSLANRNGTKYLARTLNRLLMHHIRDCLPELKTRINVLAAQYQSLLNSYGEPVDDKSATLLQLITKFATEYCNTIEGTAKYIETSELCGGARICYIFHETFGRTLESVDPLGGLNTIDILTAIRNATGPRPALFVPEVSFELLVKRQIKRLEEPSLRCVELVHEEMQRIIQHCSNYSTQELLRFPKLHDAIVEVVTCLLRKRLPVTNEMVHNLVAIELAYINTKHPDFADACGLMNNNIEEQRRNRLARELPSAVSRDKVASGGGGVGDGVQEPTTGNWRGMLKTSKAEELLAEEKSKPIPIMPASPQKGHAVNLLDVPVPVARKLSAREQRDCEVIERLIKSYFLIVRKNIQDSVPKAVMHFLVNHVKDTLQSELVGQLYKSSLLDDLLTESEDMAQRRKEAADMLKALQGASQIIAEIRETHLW

Row | SMILES | IC50 [nM]
1 | COCCOc1cc(-c2cncs2)nc2ccc(NC(=O)[C@H]3C[C@@H](OC)C3)cc12 [Example 33, cis-3-methoxy-N-(4-(2-methoxyethoxy)-2-(thiazol-5-yl)quinolin-6-yl)cyclobutane-1-carboxamide] | < 500
2 | COCCOc1cc(-c2cncs2)nc2ccc(NC(=O)[C@H]3C[C@H](OC)C3)cc12 [Example 34, trans-3-methoxy-N-(4-(2-methoxyethoxy)-2-(thiazol-5-yl)quinolin-6-yl)cyclobutane-1-carboxamide] | > 10000
3 | COCCOc1cc(-c2cncs2)nc2ccc(NC(=O)c3cnoc3)cc12 [Example 35, N-(4-(2-methoxyethoxy)-2-(thiazol-5-yl)quinolin-6-yl)isoxazole-4-carboxamide] | 500 to 1000
4 | COCCOc1cc(-c2cncs2)nc2ccc(NC(=O)[C@H](C)OC)cc12 [Example 36, (S)-2-methoxy-N-(4-(2-methoxyethoxy)-2-(thiazol-5-yl)quinolin-6-yl)propanamide] | < 500
5 | COCC(C)(C)Oc1cc(-c2cncs2)nc2ccc(NC(=O)C3COC3)cc12 [Example 39, N-(4-((1-methoxy-2-methylpropan-2-yl)oxy)-2-(thiazol-5-yl)quinolin-6-yl)oxetane-3-carboxamide] | 1000 to 10000
6 | COCCOc1cc(-n2cnc(C3CC3)c2)nc2ccc(NC(=O)C3COC3)cc12 [Example 40, N-(2-(4-cyclopropyl-1H-imidazol-1-yl)-4-(2-methoxyethoxy)quinolin-6-yl)oxetane-3-carboxamide] | < 500
7 | COCCOc1cc(-n2cnc(C)c2)nc2ccc(NC(=O)C3COC3)cc12 [Example 41, N-(4-(2-methoxyethoxy)-2-(4-methyl-1H-imidazol-1-yl)quinolin-6-yl)oxetane-3-carboxamide] | < 500
8 | O=C(Nc1ccc2nc(-n3ccnc3)cc(OCCO)c2c1)C1COC1 [Example 42, N-(4-(2-hydroxyethoxy)-2-(1H-imidazol-1-yl)quinolin-6-yl)oxetane-3-carboxamide] | 1000 to 10000
9 | CCOc1cc(-n2cnc(Cl)c2)nc2ccc(NC(=O)C3COC3)cc12 [Example 44, N-(2-(4-chloro-1H-imidazol-1-yl)-4-ethoxyquinolin-6-yl)oxetane-3-carboxamide] | 500 to 1000
10 | CCOc1cc(-n2cnc(C#N)c2)nc2ccc(NC(=O)C3COC3)cc12 [Example 46, N-(2-(4-cyano-1H-imidazol-1-yl)-4-ethoxyquinolin-6-yl)oxetane-3-carboxamide] | 1000 to 10000
11 | COC[C@H](C)Oc1cc(-c2cncs2)nc2ccc(NC(=O)C(C)C#N)cc12 (stereo partly drawn) [Example 48, 2-cyano-N-(4-(((S)-1-methoxypropan-2-yl)oxy)-2-(thiazol-5-yl)quinolin-6-yl)propanamide] | 500 to 1000
12 | COC[C@@H](C)Oc1cc(-c2cncs2)nc2ccc(NC(=O)C(C)C#N)cc12 (stereo partly drawn) [Example 49, 2-cyano-N-(4-(((R)-1-methoxypropan-2-yl)oxy)-2-(thiazol-5-yl)quinolin-6-yl)propanamide] | 1000 to 10000
13 | COC[C@@H](C)Oc1cc(-c2cncs2)nc2ccc(NC(=O)[C@H](C)OC)cc12 [Example 51, (S)-2-methoxy-N-(4-(((R)-1-methoxypropan-2-yl)oxy)-2-(thiazol-5-yl)quinolin-6-yl)propanamide] | > 10000
14 | COCCOc1cc(-c2cnn(C)c2)nc2ccc(NC(=O)C3COC3)cc12 [Example 53, N-(4-(2-methoxyethoxy)-2-(1-methyl-1H-pyrazol-4-yl)quinolin-6-yl)oxetane-3-carboxamide] | 500 to 1000
15 | CCOc1cc(-n2cnc(C)c2)nc2c(C)cc(NC(=O)C3COC3)cc12 [Example 54, N-(4-ethoxy-8-methyl-2-(4-methyl-1H-imidazol-1-yl)quinolin-6-yl)oxetane-3-carboxamide] | 1000 to 10000

Now from value to molecule:

Row | IC50 [nM] | SMILES
16 | < 500 | COCCOc1cc(-c2cncs2)nc2ccc(NC(=O)[C@@H](C)OC)cc12 [Example 37, (R)-2-methoxy-N-(4-(2-methoxyethoxy)-2-(thiazol-5-yl)quinolin-6-yl)propanamide]
17 | < 500 | COCC(C)Oc1cc(-c2cncs2)nc2ccc(NC(=O)C3COC3)cc12 (stereo not shown) [Example 38, N-(4-((1-methoxypropan-2-yl)oxy)-2-(thiazol-5-yl)quinolin-6-yl)oxetane-3-carboxamide]
18 | 1000 to 10000 | Cc1cn(-c2cc(OC3CC3)c3cc(NC(=O)C4COC4)ccc3n2)cn1 [Example 43, N-(4-cyclopropoxy-2-(4-methyl-1H-imidazol-1-yl)quinolin-6-yl)oxetane-3-carboxamide]
19 | 1000 to 10000 | CCOc1cc(-n2cnnc2)nc2ccc(NC(=O)C3COC3)cc12 [Example 45, N-(4-ethoxy-2-(4H-1,2,4-triazol-4-yl)quinolin-6-yl)oxetane-3-carboxamide]
20 | > 10000 | CCOc1cc(-n2cnc(C(C)(C)C)c2)nc2ccc(NC(=O)C3COC3)cc12 [Example 47, N-(2-(4-(tert-butyl)-1H-imidazol-1-yl)-4-ethoxyquinolin-6-yl)oxetane-3-carboxamide]
21 | 1000 to 10000 | COC[C@H](C)Oc1cc(-c2cncs2)nc2ccc(NC(=O)[C@H](C)OC)cc12 [Example 50, (S)-2-methoxy-N-(4-(((S)-1-methoxypropan-2-yl)oxy)-2-(thiazol-5-yl)quinolin-6-yl)propanamide]
22 | 1000 to 10000 | COC[C@@H](C)Oc1cc(-c2cncs2)nc2ccc(NC(=O)C3COC3)cc12 [Example 52, (R)—N-(4-((1-methoxypropan-2-yl)oxy)-2-(thiazol-5-yl)quinolin-6-yl)oxetane-3-carboxamide]
